pIC50: −log10 of the molar value.
Target: T1, Glycogen phosphorylase, muscle form (Oryctolagus cuniculus, UniProt P00489)
T1 sequence (P00489 whole entry): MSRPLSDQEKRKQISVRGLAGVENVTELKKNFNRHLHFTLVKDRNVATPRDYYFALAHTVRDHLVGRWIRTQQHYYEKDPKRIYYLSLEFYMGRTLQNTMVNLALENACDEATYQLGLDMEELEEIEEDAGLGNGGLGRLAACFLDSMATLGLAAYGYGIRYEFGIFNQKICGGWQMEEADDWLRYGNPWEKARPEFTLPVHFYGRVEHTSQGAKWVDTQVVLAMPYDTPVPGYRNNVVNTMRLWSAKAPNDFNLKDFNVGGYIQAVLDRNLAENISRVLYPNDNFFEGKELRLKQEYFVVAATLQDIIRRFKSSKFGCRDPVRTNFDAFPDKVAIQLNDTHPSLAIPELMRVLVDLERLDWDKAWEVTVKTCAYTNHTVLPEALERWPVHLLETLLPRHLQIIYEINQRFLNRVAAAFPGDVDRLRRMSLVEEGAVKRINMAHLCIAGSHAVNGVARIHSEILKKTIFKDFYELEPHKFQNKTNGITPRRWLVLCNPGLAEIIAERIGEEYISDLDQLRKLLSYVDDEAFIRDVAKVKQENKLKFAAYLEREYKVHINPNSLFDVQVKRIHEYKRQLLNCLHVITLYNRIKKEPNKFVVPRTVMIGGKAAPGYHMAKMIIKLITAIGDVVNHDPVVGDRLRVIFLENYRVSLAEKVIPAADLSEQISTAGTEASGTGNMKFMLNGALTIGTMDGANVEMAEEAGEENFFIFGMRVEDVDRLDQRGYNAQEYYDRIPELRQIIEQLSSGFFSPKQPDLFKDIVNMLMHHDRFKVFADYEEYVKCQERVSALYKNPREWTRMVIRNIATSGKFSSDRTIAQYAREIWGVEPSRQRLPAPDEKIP
Assay: Enzyme Inhibition Assay
Conditions: pH 7.2; 22 °C
Procedure: The activity of the compounds is determined by measuring the inhibitory effect of the compounds in the direction of glycogen synthesis, the conversion of glucose-1-phosphate into glycogen with the release of inorganic phosphate, which was monitored using microplate reader (BIO-RAD). […] The IC50 values were estimated by fitting the inhibition data to a dose dependent curve using a logistic derivative equation.

Row | SMILES | pIC50
1 | C[C@H]1[C@H](C)CC[C@]2(C(=O)O)CC[C@]3(C)C(=CC[C@@H]4[C@@]5(C)CC[C@@H](O)C(C)(C)C5CC[C@]43C)[C@H]12 (stereo partly drawn) [(1S,2R,4aS,6aS,6bR,10R,12aR,12bR,14bS)-10-hydroxy-1,2,6a,6b,9,9,12a-heptamethyl-1,2,3,4,4a,5,6,6a,6b,7,8,8a,9,10,11,12,12a,12b,13,14b-icosahydropicene-4a-carboxylic acid] | 4.72
2 | C[C@H]1[C@H](C)CC[C@]2(C(=O)O)CC[C@]3(C)C(=CC[C@@H]4[C@@]5(C)CC[C@H](O)C(C)(C)C5CC[C@]43C)[C@H]12 (stereo partly drawn) [(1S,2R,4aS,6aS,6bR,10S,12aR,12bR,14bS)-10-hydroxy-1,2,6a,6b,9,9,12a-heptamethyl-1,2,3,4,4a,5,6,6a,6b,7,8,8a,9,10,11,12,12a,12b,13,14b-icosahydropicene-4a-carboxylic acid] | 5.05
3 | C[C@H]1[C@H](C)CC[C@]2(C(=O)O)CC[C@]3(C)C(=CC[C@@H]4[C@@]5(C)CCC(=O)C(C)(C)C5CC[C@]43C)[C@H]12 (stereo partly drawn) [(1S,2R,4aS,6aS,6bR,12aR,12bR,14bS)-1,2,6a,6b,9,9,12a-heptamethyl-10-oxo-1,2,3,4,4a,5,6,6a,6b,7,8,8a,9,10,11,12,12a,12b,13,14b-icosahydropicene-4a-carboxylic acid] | 4.24
4 | C[C@H]1[C@H](C)CC[C@]2(C(=O)O[C@@H]3O[C@H](CO)[C@@H](O)[C@H](O)[C@H]3O)CC[C@]3(C)C(=CC[C@@H]4[C@@]5(C)C[C@@H](O)[C@H](O)C(C)(C)C5CC[C@]43C)[C@H]12 (stereo partly drawn) [(2S,3R,4S,5S,6R)-3,4,5-trihydroxy-6-(hydroxymethyl)oxan-2-yl (1S,2R,4aS,6aS,6bR,10R,11R,12aR,12bR,14bS)-10,11-dihydroxy-1,2,6a,6b,9,9,12a-heptamethyl-1,2,3,4,4a,5,6,6a,6b,7,8,8a,9,10,11,12,12a,12b,13,14b-icosahydropicene-4a-carboxylate] | 3.97
5 | CC1(C)CC[C@]2(C(=O)O[C@@H]3O[C@H](CO)[C@@H](O)[C@H](O)[C@H]3O)CC[C@]3(C)C(=CC[C@@H]4[C@@]5(C)CC[C@H](O)C(C)(C)C5CC[C@]43C)[C@@H]2C1 (stereo partly drawn) [(2S,3R,4S,5S,6R)-3,4,5-trihydroxy-6-(hydroxymethyl)oxan-2-yl (4aS,6aS,6bR,10S,12aR,12bR,14bS)-10-hydroxy-2,2,6a,6b,9,9,12a-heptamethyl-1,2,3,4,4a,5,6,6a,6b,7,8,8a,9,10,11,12,12a,12b,13,14b-icosahydropicene-4a-carboxylate] | 3.53
6 | CC1(C)C2CC[C@]3(C)[C@H](CC=C4[C@@H]5C[C@@](C)(C(=O)O)CC[C@]5(C)CC[C@]43C)[C@@]2(C)CC[C@@H]1O (stereo partly drawn) [(2S,4aS,6aS,6bR,10S,12aR,12bR,14bR)-10-hydroxy-2,4a,6a,6b,9,9,12a-heptamethyl-1,2,3,4,4a,5,6,6a,6b,7,8,8a,9,10,11,12,12a,12b,13,14b-icosahydropicene-2-carboxylic acid] | 4.09
7 | CC1(C)C2CC[C@]3(C)[C@H](C(=O)C=C4[C@@H]5C[C@@](C)(C(=O)O)CC[C@]5(C)CC[C@]43C)[C@@]2(C)CC[C@@H]1O (stereo partly drawn) [(2S,4aS,6aS,6bR,10S,12aS,12bR,14bR)-10-hydroxy-2,4a,6a,6b,9,9,12a-heptamethyl-13-oxo-1,2,3,4,4a,5,6,6a,6b,7,8,8a,9,10,11,12,12a,12b,13,14b-icosahydropicene-2-carboxylic acid] | 4.18
8 | CC1(C)CC[C@]2(C(=O)O)CC[C@]3(C)C(=CC[C@@H]4[C@@]5(C)CCC(=O)C(C)(C)C5CC[C@]43C)[C@@H]2C1 (stereo not given in full) [pentacyclic triterpene compound 6] | 4.74
9 | CC1(C)C2CC[C@]3(C)[C@H](C(=O)C=C4[C@@H]5C[C@@](C)(C(=O)O)CC[C@]5(C)CC[C@]43C)[C@@]2(C)CC[C@@H]1O[C@H]1O[C@H](C(=O)O)[C@@H](O)[C@H](O)[C@H]1O[C@@H]1O[C@H](C(=O)O)[C@@H](O)[C@H](O)[C@H]1O (stereo not given in full) [pentacyclic triterpene compound 7] | 3.09
10 | C[C@H]1[C@H](C)CC[C@]2(C(=O)O[C@@H]3O[C@H](CO)[C@@H](O)[C@H](O)[C@H]3O)CC[C@]3(C)C(=CC[C@@H]4[C@@]5(C)CC[C@H](O)C(C)(C)C5CC[C@]43C)[C@H]12 (stereo not given in full) [pentacyclic triterpene compound 19] | 4.01

From BindingDB's records for doi:10.1021/jm8000949 (China Pharmaceutical University, 2008)
